Measurements as given in patent US9681664B2, “Macrocyclic picolinamides as fungicides” (Dow Agrosciences LLC, priority 2012, dated 2017).
Where two headings read alike, the source gives them in different places.

Legend:
Format in all cases: in vivo
[1] = system: Mycosphaerella graminicola; Anamorph: Septoria tritici; experiment: Leaf blotch of wheat (SEPTTR) disease control on wheat seedlings; conditions: Zymoseptoria tritici, High volume application, 100 ppm
In short: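 Protective or curative format: Septoria tritici inoculation either preceded or followed fungicide application to first-leaf Yuma wheat. Severity scored 0–100%; control expressed versus untreated.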

Erysiphe cichoracearum = experiment: Powdery mildew of cucumber (ERYSCI) disease control; conditions: Golovinomyces cichoracearum, 24 h, 1 Day Protectant, high volume, read-out: Disease Control ERYSCI 1 DP
Method: Technical grades of materials were dissolved in acetone, which were then mixed with nine volumes of water containing 110 ppm Triton X-100. The fungicide solutions were applied onto wheat seedlings using an automated booth sprayer to run-off. All sprayed plants were allowed to air dry prior to further handling. All fungicides were evaluated using the aforementioned method for their activity vs. all target diseases. Wheat leaf blotch and brown rust activity were also evaluated using track spray applications, in which case the fungicides were formulated as EC formulations, containing 0.1% Trycol 5941 in the spray solutions. Cucumber seedlings (variety Bush Pickle) were grown in soil-less Metro mix, with one plant per pot, and used in the test when 12 to 14 days old. Plants were inoculated with a spore suspension 24 hr following fungicide treatments. After inoculation the plants remained in the greenhouse set at 20° C. until disease was fully expressed. Fungicide formulation, application and disease assessment on the sprayed leaves followed the procedures as described in the Example A.

Phakopsora pachyrhizi = experiment: Asian soybean rust (PHAKPA) disease control; conditions: topical, high volume
Method: Technical grades of materials were dissolved in acetone, which were then mixed with nine volumes of water containing 0.011% Tween 20. The fungicide solutions were applied onto soybean seedlings using an automated booth sprayer to run-off. All sprayed plants were allowed to air dry prior to further handling.
Soybean plants (variety Williams 82) were grown in soil-less Metro mix, with one plant per pot. Two weeks old seedlings were used for testing. Plants were inoculated either 3 days prior to or 1 day after fungicide treatments. Plants were incubated for 24 h in a dark dew room at 22° C. and 100% RH then transferred to a growth room at 23° C. for disease to develop. Disease severity was assessed on the sprayed leaves.

[2] = system: Magnaporthe grisea; Anamorph: Pyricularia oryzae; experiment: whole plant or invertebrate; conditions: 24 h, read-out: PYRIOR 1 DP disease control
Alternaria solani = experiment: Tomato early blight (ALTESO) disease control; conditions: 24 h, 1 Day Protectant, high volume, read-out: Disease Control ALTESO 1 DP
Method: Technical grades of materials were dissolved in acetone, which were then mixed with nine volumes of water containing 110 ppm Triton X-100. The fungicide solutions were applied onto wheat seedlings using an automated booth sprayer to run-off. All sprayed plants were allowed to air dry prior to further handling. All fungicides were evaluated using the aforementioned method for their activity vs. all target diseases. Wheat leaf blotch and brown rust activity were also evaluated using track spray applications, in which case the fungicides were formulated as EC formulations, containing 0.1% Trycol 5941 in the spray solutions. Tomato plants (variety Outdoor girl) were propagated in soil-less Metro mix, with each pot having one plant, and used when 12 to 14 days old. Test plants were inoculated with an aqueous spore suspension of Alternaria solani 24 hr after fungicide treatments. After inoculation the plants were kept in 100% relative humidity (one day in a dark dew chamber followed by two to three days in a lighted dew chamber at 20° C.) to permit spores to germinate and infect the leaf. The plants were then transferred to a growth room at 22° C. for disease to develop. Fungicide formulation, application and disease assessment on the sprayed leaves followed the procedures as described in the Example A.

[3] = system: Glomerella lagenarium; Anamorph: Colletotrichum lagenarium; experiment: Cucumber anthracnose (COLLLA) disease control; conditions: Colletotrichum orbiculare, 24 h, 1 Day Protectant, high volume, read-out: Disease Control COLLLA 1 DP
Method: Technical grades of materials were dissolved in acetone, which were then mixed with nine volumes of water containing 110 ppm Triton X-100. The fungicide solutions were applied onto wheat seedlings using an automated booth sprayer to run-off. All sprayed plants were allowed to air dry prior to further handling. All fungicides were evaluated using the aforementioned method for their activity vs. all target diseases. Wheat leaf blotch and brown rust activity were also evaluated using track spray applications, in which case the fungicides were formulated as EC formulations, containing 0.1% Trycol 5941 in the spray solutions. Cucumber seedlings (variety Bush Pickle) were propagated in soil-less Metro mix, with each pot having one plant, and used in the test when 12 to 14 days old. Test plants were inoculated with an aqueous spore suspension of Colletotrichum lagenarium 24 hr after fungicide treatments. After inoculation the plants were kept in a dew room at 22° C. with 100% relative humidity for 48 hr to permit spores to germinate and infect the leaf. The plants were then transferred to a growth room set at 22° C. for disease to develop. Fungicide formulation, application and disease assessment on the sprayed leaves followed the procedures as described in the Example A.

[4] = 24 h, 1 Day Protectant, read-out: SEPTTR 1DP disease control
[5] = 72 h, 3 Day Curative, read-out: SEPTTR 3DC disease control
[6] = 24 h, 1 Day Protectant, read-out: Disease Control PHAKPA 1DP
[7] = 72 h, 3 Day Curative, read-out: Disease Control PHAKPA 3DC

Row | SMILES | pest or weed control at 100 ppm [1, 4] [%] | pest or weed control at 100 ppm [1, 5] [%] | pest or weed control at 100 ppm (Erysiphe cichoracearum) [%] | pest or weed control at 25 ppm (Phakopsora pachyrhizi; [6]) [%] | pest or weed control at 25 ppm (Phakopsora pachyrhizi; [7]) [%] | pest or weed control at 100 ppm [2] [%] | pest or weed control at 100 ppm (Alternaria solani) [%] | pest or weed control at 100 ppm [3] [%]
1 | COc1ccnc(C(=O)N[C@H]2CCC[C@H](OC3CCCC3)[C@@H](OCCCc3ccccc3)[C@H](C)OC2=O)c1OCOC(C)=O [F165] | 80 to 100 | 80 to 100 | 0 to 80 | 80 to 100 | 0 to 80 | 80 to 100 | 80 to 100 | –
2 | COc1ccnc(C(=O)N[C@H]2CCC[C@H](OCc3ccccc3)[C@@H](Oc3ccccc3)[C@H](C)OC2=O)c1OCOC(C)=O [F31] | 80 to 100 | 80 to 100 | < 0 | – | – | 80 to 100 | 0 to 80 | 80 to 100
3 | COc1ccnc(C(=O)N[C@H]2CCC[C@H](OCCCC(F)(F)F)[C@@H](OC3CCCC3)[C@H](C)OC2=O)c1OCOC(C)=O [F172] | 80 to 100 | 80 to 100 | 80 to 100 | 80 to 100 | 80 to 100 | 80 to 100 | 80 to 100 | –
4 | COc1ccc(O[C@H]2CCC[C@H](NC(=O)c3nccc(OC)c3OCOC(C)=O)C(=O)O[C@@H](C)[C@@H]2OC2CCCC2)cc1 [F170] | 80 to 100 | 80 to 100 | 0 to 80 | 80 to 100 | 0 to 80 | 80 to 100 | 80 to 100 | –
5 | COc1ccnc(C(=O)N[C@H]2CCC[C@H](OCCCC(F)(F)F)[C@@H](OC3CCCC3)[C@H](C)OC2=O)c1OCOC(=O)C(C)C [F171] | 80 to 100 | 80 to 100 | 80 to 100 | – | – | 80 to 100 | 80 to 100 | –
6 | COCCC(=O)Oc1c(OC)ccnc1C(=O)N[C@H]1CCC[C@H](Oc2ccccc2)[C@@H](OCCCc2ccccc2)[C@H](C)OC1=O [F132] | 80 to 100 | 80 to 100 | 0 to 80 | – | – | 0 to 80 | 80 to 100 | –
7 | COc1ccnc(C(=O)N[C@H]2CCC[C@H](OCCCc3ccccc3)[C@@H](Oc3ccccc3)[C@H](C)OC2=O)c1OC(C)=O [F134] | 80 to 100 | 80 to 100 | 0 to 80 | – | – | 80 to 100 | 0 to 80 | –
8 | COc1ccnc(C(=O)N[C@H]2CCC[C@H](OCCCC(F)(F)F)[C@@H](OC3CCCC3)[C@H](C)OC2=O)c1OC(C)=O [F173] | 80 to 100 | 80 to 100 | 0 to 80 | – | – | 80 to 100 | 80 to 100 | –
